Where two headings read alike, the source gives them in different places.
How the values were obtained:
[1] = molecular target: T1, NADPH oxidase (NOX) (Homo sapiens, UniProt P04839); test: Measurement of NOX inhibitory activity in differentiated HL-60 cells (PMA-activated superoxide production, WST-1 formazan absorbance at 450 nm); assay type: cell-based; details: for Inhibitory activity ratio: 3-acetyl triterpenic acid versus the triterpenic acid without acetyl group, formula (i)
T1 construct: HL-60 cells were differentiated into NOX-expressing granulocytes; endogenous in cells; host or cells: HL-60 cells differentiated into granulocytes with 1% DMSO
T1 sequence (P04839 1-570): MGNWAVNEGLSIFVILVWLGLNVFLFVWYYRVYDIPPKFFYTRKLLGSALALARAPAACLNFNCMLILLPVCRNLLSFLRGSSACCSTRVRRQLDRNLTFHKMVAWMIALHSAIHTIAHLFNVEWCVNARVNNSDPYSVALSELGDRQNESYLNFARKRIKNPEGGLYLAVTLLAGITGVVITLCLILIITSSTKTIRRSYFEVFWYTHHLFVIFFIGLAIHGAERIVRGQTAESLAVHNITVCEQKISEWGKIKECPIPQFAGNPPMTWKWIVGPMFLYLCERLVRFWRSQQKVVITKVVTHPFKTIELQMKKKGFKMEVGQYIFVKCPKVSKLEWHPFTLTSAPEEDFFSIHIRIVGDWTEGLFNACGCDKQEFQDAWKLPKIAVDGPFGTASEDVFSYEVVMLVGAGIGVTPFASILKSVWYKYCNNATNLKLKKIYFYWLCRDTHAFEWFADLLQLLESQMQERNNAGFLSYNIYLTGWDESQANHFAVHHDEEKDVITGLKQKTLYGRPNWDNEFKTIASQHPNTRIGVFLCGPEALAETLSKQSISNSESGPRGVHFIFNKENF
T1 sequence (P13498 1-195 partner): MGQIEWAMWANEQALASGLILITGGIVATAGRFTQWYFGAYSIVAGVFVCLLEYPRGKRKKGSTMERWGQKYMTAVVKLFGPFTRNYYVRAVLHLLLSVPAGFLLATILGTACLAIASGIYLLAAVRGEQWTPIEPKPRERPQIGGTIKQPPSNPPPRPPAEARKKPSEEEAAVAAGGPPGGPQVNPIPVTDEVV
Text: It is known that undifferentiated human myeloid leukemia HL-60 cells have an ability to proliferate, but differentiate into mature granulocytes by adding DMSO (dimethyl sulfoxide), retinoic acid, or the like and lose their proliferative ability. Mature HL-60 cells express NOX that serves as an indicator of differentiation. NOX can be used as an indicator for evaluating NOX inhibitory activity.
HL-60 cells were differentiated into NOX-expressing granulocytes by the following method.
Then, the suspension was dispensed into cell culture dishes (100 mm) so as to be 15 mL each, and the cells were cultured in a CO2 incubator (37° C.) for 3 days.
The differentiated HL-60 cells were used to measure NOX inhibitory activity as will be described below.
WST-1 (2-(4-iodophenyl)-3-(4-nitrophenyl)-5-(2,4-disulfophenyl)-2H-tetrazolium, monosodium salt) was dissolved in a D-MEM medium so as to be 0.8 mg/mL, and thus a WST-1 solution was prepared. WST-1 reacts with superoxide and produces yellow formazan. Yellow formazan absorbs a wavelength of 450 nm, and, therefore, the amount of yellow formazan can be measured by measuring absorbance at a wavelength of 450 nm. Also, the amount of yellow formazan produced is proportional to the amount of superoxide during the reaction, and, therefore, the amount of superoxide can be measured by measuring the amount of yellow formazan produced.
PMA (phorbol 12-myristate 13-acetate) was dissolved in a D-MEM medium so as to be 4 μM, and thus a PMA solution was prepared.
PMA is known to function to activate NOX and causes superoxide production.
The differentiated HL-60 cells were collected by centrifugation, and suspended in a D-MEM medium containing neither FBS nor phenol red so as to be 5×10^6 cells/mL.
The cell suspension was added into a 96-well microplate so as to be 25 μL per well.
Next, 25 μL of the WST-1 solution prepared as described above was added to the wells.
After adding the solutions, the cell suspensions were stirred.
Thereafter, 25 μL of the prepared PMA solution was added (a final PMA concentration in the medium being 1 μM) to activate NOX and carry out a reaction at 37° C. for 60 minutes.
Then, by measuring absorbance at a wavelength of 450 nm, the amount of yellow formazan produced and thus the amount of superoxide produced by NOX were measured.
Inhibitory activity ratio=(IC50 of triterpenic acid having acetyl group)/(IC50 of triterpenic acid without acetyl group) (i)
Based on the obtained measurement results, the IC50 (μg/mL) of fraction 1 and fraction 2 was determined.
Moreover, the inhibitory activity ratio of triterpenic acid having an acetyl group in fraction 2 to triterpenic acid without an acetyl group in fraction 1 was calculated using formula (i).

[2] = tested on: Senescent Accelerated Model Prone 10 (SAMP10) mouse; test: Brain function evaluation by passive avoidance test (step-through test) in senescence accelerated model; assay type: in vivo; details: SAMP10 mice, AIN-93M containing 0.006% ursolic acid or 0.002% acetylursolic acid for 12 weeks, evaluated at 11 months old
Experimental: The effect of inhibiting a decline in brain function of the Aronia extract was evaluated using the extract powder obtained in Example 2. The Senescent Accelerated Model Prone 10 (SAMP10) mouse, which is one of the senescence accelerated models, is known to show age-related decline in brain function at an early stage, and can be used to evaluate effects on an age-related decline in brain function. Accordingly, this animal was used to investigate the brain function ameliorating effect of the Aronia extract. A series of animal experiments were carried out based on a plan that complies with the animal welfare management law and other relevant laws and that is approved by the head of an organization after being reviewed by an institutional animal experiment committee.
(§1) As for a young (young control) group, SAMP10 mice at 8 weeks old were purchased, acclimated for 7 days, and received AIN-93M (manufactured by CLEA Japan Inc.) as a base food for 12 weeks, and then the brain function was evaluated at 4 months old (N=15). As for an elderly group, mice at 14 weeks old were purchased, acclimated until 8 months old, randomly divided into 2 groups, received AIN-93M or AIN-93M containing 0.02% Aronia extract for 12 weeks, and then the brain function was evaluated at 11 months old (an elderly control group (N=26), an elderly Aronia received group (N=18)). The food was changed once a week, and the food intake and the body weight were measured once a week.
A brain function was evaluated using a passive avoidance test (a step-through test). […]
Mice were placed in a light room (9 cm width, 11.5 cm depth, 15 cm height) of a step-through passive avoidance response tester (manufactured by Muromachi Kikai Co., Ltd.), then a door to a dark room (14 cm width, 17.5 cm depth, 15 cm height) was opened 30 seconds later, and the time until the mice entered the dark room (the light room latency) was measured. […]
A retention trial was performed the day after the acquisition trial. The same operation as the acquisition trial was performed on the mice, and the latency in light room was measured. […] The latency was measured up to 300 seconds, and evaluations were made such that the longer the latency of the retention trial is, the higher the memory function is.
The brain function ameliorating effects of ursolic acid and acetylursolic acid contained in Aronia were compared in terms of the recovery of light room latency. […] When the mice reached 11 months old, a brain function was evaluated according to the method of Reference Example 1 (0.006% ursolic acid received group (N=8), and 0.002% acetylursolic acid received group (N=10)).

[3] = Body weight and food intake of SAMP10 mice during 12-week feeding; assay type: in vivo, mouse; details: AIN-93M containing 0.006% ursolic acid or 0.002% acetylursolic acid for 12 weeks
Experimental: as §1
The brain function ameliorating effects of ursolic acid and acetylursolic acid contained in Aronia were compared in terms of the recovery of light room latency. SAMP10 mice at 14 weeks old were purchased, acclimated until 8 months old, then randomly divided into two groups, and received AIN-93M containing 0.006% ursolic acid or AIN-93M containing 0.002% acetylursolic acid for 12 weeks. When the mice reached 11 months old, a brain function was evaluated according to the method of Reference Example 1 (0.006% ursolic acid received group (N=8), and 0.002% acetylursolic acid received group (N=10)).

[4] = standard products, differentiated HL-60 cells, 1 μM PMA, 37° C., 60 minutes, read-out: IC50

Row | Compound | IC50 [1] [µM] | Inhibitory activity ratio [1] [times] | IC50 [1, 4] [µM] | latency in light room, acquisition trial [2] | latency in light room, retention trial [2] | body weight and food intake [3]
1 | CC(=O)O[C@H]1CC[C@]2(C)[C@H]3CC=C4[C@@H]5CC(C)(C)CC[C@]5(C(=O)O)CC[C@@]4(C)[C@]3(C)CC[C@H]2C1(C)C [3-Acetyloleanolic acid] | 10 | 4.4 |  |  |  | 
2 | CC(=O)O[C@H]1CC[C@]2(C)[C@H]3CC=C4[C@@H]5[C@@H](C)[C@H](C)CC[C@]5(C(=O)O)CC[C@@]4(C)[C@]3(C)CC[C@H]2C1(C)C [3-Acetylursolic acid] |  | 7.3 | 6 | no difference between groups | stronger effect on ameliorating brain function than ursolic acid | 
3 | C[C@H]1[C@H](C)CC[C@]2(C(=O)O)CC[C@]3(C)C(=CC[C@@H]4[C@@]5(C)CC[C@H](O)C(C)(C)[C@@H]5CC[C@]43C)[C@H]12 [Ursolic acid, reference compound] |  |  | 44 | no difference between groups | act to inhibit an age-related decline in brain function | no difference
